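Tested at 5 concentrations; 48 h exposure; 96-well plates; endpoints linearly interpolated, else capped at highest concentration. The concentration for full growth arrest is given as TGI.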
Legend:
Experiment in all cases: growth of human tumour cells (NCI), 48 h
[1] = tested on: HCC-2998 colon
[2] = tested on: NCI-H460 lung
[3] = tested on: SN12C renal
[4] = tested on: SNB-75 CNS
[5] = tested on: MALME-3M melanoma
[6] = tested on: OVCAR-8 ovarian
[7] = tested on: NCI-H522 lung
[8] = tested on: RPMI-8226 leukemia
[9] = tested on: CCRF-CEM leukemia
[10] = tested on: LXFL 529 NSCLC
[11] = tested on: MOLT-4 leukemia
[12] = tested on: CAKI-1 renal
[13] = tested on: OVCAR-4 ovarian
[14] = tested on: SNB-19 CNS
[15] = tested on: A549 NSCLC
[16] = tested on: 786-0 renal
[17] = tested on: OVCAR-3 ovarian
[18] = tested on: SK-MEL-2 melanoma
[19] = tested on: UO-31 renal
[20] = tested on: EKVX NSCLC
[21] = tested on: KM20L2 colon
[22] = tested on: XF 498 CNS
[23] = tested on: U251 CNS
[24] = tested on: SNB-78 CNS
[25] = tested on: SF-295 CNS
[26] = tested on: SF-539 CNS
[27] = tested on: A498 renal
[28] = tested on: K-562 leukemia
[29] = tested on: SK-MEL-28 melanoma
[30] = tested on: UACC-257 melanoma
[31] = tested on: SK-MEL-5 melanoma
[32] = tested on: KM12 colon
[33] = tested on: OVCAR-5 ovarian
[34] = tested on: HCT-116 colon
[35] = tested on: NCI-H23 lung
[36] = tested on: M14 melanoma
[37] = tested on: ACHN renal
[38] = tested on: SW-620 colon
[39] = tested on: HOP-62 NSCLC
[40] = tested on: DLD-1 colon
[41] = tested on: TK-10 renal
[42] = tested on: HT29 colon
[43] = tested on: SF-268 CNS
[44] = tested on: NCI/ADR-RES ovarian
[45] = tested on: HL-60(TB) leukemia
[46] = tested on: RXF 393 renal
[47] = tested on: DU-145 prostate
[48] = tested on: T-47D breast
[49] = tested on: MDA-MB-435
[50] = tested on: IGROV1 ovarian
[51] = tested on: BT-549 breast
[52] = tested on: PC-3 prostate
[53] = tested on: HOP-92 NSCLC
[54] = tested on: SR leukemia
[55] = tested on: COLO 205 colon
[56] = tested on: MDA-MB-231 breast
[57] = tested on: MCF7 breast
[58] = tested on: HS 578T breast
[59] = tested on: MDA-N
[60] = tested on: NCI-H226 lung
[61] = tested on: HCT-15 colon
[62] = tested on: LOX IMVI melanoma
[63] = tested on: DMS 114 small cell lung
[64] = tested on: M19-MEL melanoma
[65] = tested on: UACC-62 melanoma
[66] = tested on: HOP-18 NSCLC
[67] = tested on: DMS 273 small cell lung
[68] = tested on: SK-OV-3 ovarian

With `COc1cc2c(cc1OC)C1Cc3ccc(OC)c(OC)c3C[N+]1([O-])CC2` (stereo unspecified) the TGI [1] was over 100 µM, the TGI [2] was over 100 µM and the TGI [3] was over 100 µM. For the same compound, the TGI [4] was over 100 µM, the TGI [5] was over 100 µM and the TGI [6] was over 100 µM. It also gave a TGI [7] of over 100 µM, a TGI [8] of over 100 µM and a TGI [9] of over 100 µM. The TGI [10] was over 100 µM, the TGI [11] was over 100 µM and the TGI [12] was over 100 µM. For the same compound, the TGI [13] was over 100 µM, the TGI [14] was over 100 µM and the TGI [15] was over 100 µM. It also gave a TGI [16] of over 100 µM, a TGI [17] of over 100 µM and a TGI [18] of over 100 µM. For the same compound, the TGI [19] was over 100 µM, the TGI [20] was over 100 µM and the TGI [21] was over 100 µM. The TGI [22] was over 100 µM, the TGI [23] was over 100 µM and the TGI [24] was over 100 µM. For the same compound, the TGI [25] was over 100 µM, the TGI [26] was over 100 µM and the TGI [27] was over 100 µM. The TGI [28] was over 100 µM, the TGI [29] was over 100 µM and the TGI [30] was over 100 µM. It also gave a TGI [31] of over 100 µM, a TGI [32] of over 100 µM and a TGI [33] of over 100 µM. The TGI [34] was over 100 µM, the TGI [35] was over 100 µM and the TGI [36] was over 100 µM. For the same compound, the TGI [37] was over 100 µM, the TGI [38] was over 100 µM and the TGI [39] was over 100 µM. For the same compound, the TGI [40] was over 100 µM, the TGI [41] was over 100 µM and the TGI [42] was over 100 µM. For the same compound, the TGI [43] was over 100 µM.
`O=c1[nH]nc(Cc2ccccc2)n1/N=C/c1cccnc1` gave a TGI [44] of over 100 µM, a TGI [1] of over 100 µM and a TGI [2] of over 100 µM. For the same compound, the TGI [3] was over 100 µM, the TGI [4] was over 100 µM and the TGI [5] was over 100 µM. For the same compound, the TGI [45] was over 100 µM, the TGI [46] was over 100 µM and the TGI [6] was over 100 µM. The TGI [7] was over 100 µM, the TGI [8] was over 100 µM and the TGI [9] was over 100 µM. For the same compound, the TGI [47] was over 100 µM, the TGI [48] was over 100 µM and the TGI [11] was over 100 µM. The TGI [12] was over 100 µM, the TGI [13] was over 100 µM and the TGI [49] was over 100 µM. The TGI [14] was over 100 µM, the TGI [15] was over 100 µM and the TGI [16] was over 100 µM. The TGI [50] was over 100 µM, the TGI [17] was over 100 µM and the TGI [51] was over 100 µM. For the same compound, the TGI [19] was over 100 µM, the TGI [52] was over 100 µM and the TGI [20] was over 100 µM. The TGI [23] was over 100 µM, the TGI [53] was over 100 µM and the TGI [54] was over 100 µM. The TGI [25] was over 100 µM, the TGI [26] was over 100 µM and the TGI [55] was over 100 µM. For the same compound, the TGI [56] was over 100 µM, the TGI [27] was over 100 µM and the TGI [57] was over 100 µM. For the same compound, the TGI [28] was over 100 µM, the TGI [29] was over 100 µM and the TGI [58] was over 100 µM. The TGI [30] was over 100 µM, the TGI [59] was over 100 µM and the TGI [31] was over 100 µM. For the same compound, the TGI [32] was over 100 µM, the TGI [33] was over 100 µM and the TGI [34] was over 100 µM. It also gave a TGI [35] of over 100 µM, a TGI [36] of over 100 µM and a TGI [37] of over 100 µM. It also gave a TGI [38] of over 100 µM, a TGI [60] of over 100 µM and a TGI [61] of over 100 µM. It also gave a TGI [39] of over 100 µM, a TGI [41] of over 100 µM and a TGI [62] of over 100 µM. It also gave a TGI [42] of over 100 µM and a TGI [43] of over 100 µM.
For `Cc1nc(/C=C2\C(=O)C=Cc3ccccc32)c(O)o1`, the TGI [1] was over 100 µM, the TGI [2] was over 100 µM and the TGI [3] was over 100 µM. It also gave a TGI [4] of 40.4 µM, a TGI [5] of over 100 µM and a TGI [45] of over 100 µM. It also gave a TGI [46] of over 100 µM, a TGI [6] of over 100 µM and a TGI [7] of over 100 µM. For the same compound, the TGI [8] was over 100 µM, the TGI [9] was over 100 µM and the TGI [10] was over 100 µM. For the same compound, the TGI [11] was over 100 µM, the TGI [13] was over 100 µM and the TGI [14] was over 100 µM. For the same compound, the TGI [15] was over 100 µM, the TGI [16] was over 100 µM and the TGI [50] was over 100 µM. It also gave a TGI [18] of over 100 µM, a TGI [19] of over 100 µM and a TGI [63] of over 100 µM. The TGI [20] was over 100 µM, the TGI [64] was over 100 µM and the TGI [21] was over 100 µM. The TGI [23] was over 100 µM, the TGI [53] was over 100 µM and the TGI [24] was over 100 µM. It also gave a TGI [25] of over 100 µM, a TGI [26] of over 100 µM and a TGI [55] of over 100 µM. It also gave a TGI [27] of over 100 µM, a TGI [65] of over 100 µM and a TGI [28] of over 100 µM. The TGI [29] was over 100 µM, the TGI [30] was over 100 µM and the TGI [31] was over 100 µM. For the same compound, the TGI [32] was over 100 µM, the TGI [33] was over 100 µM and the TGI [34] was over 100 µM. It also gave a TGI [35] of over 100 µM, a TGI [36] of over 100 µM and a TGI [37] of over 100 µM. The TGI [38] was over 100 µM, the TGI [61] was over 100 µM and the TGI [39] was over 100 µM. It also gave a TGI [66] of over 100 µM, a TGI [40] of over 100 µM and a TGI [42] of over 100 µM. It also gave a TGI [43] of over 100 µM.
For `CCOC(=O)C12C(C(=O)OC)=C(C)N(NC(=O)Nc3ccccc3)C1(N)N(NC(=O)Nc1ccccc1)C(C)=C2C(=O)OC` (stereo unspecified), the TGI [1] was 86.8 µM, the TGI [2] was over 94.2 µM and the TGI [3] was over 100 µM. It also gave a TGI [4] of over 100 µM, a TGI [5] of 50.7 µM and a TGI [45] of 48.8 µM. For the same compound, the TGI [46] was 74.3 µM, the TGI [6] was over 100 µM and the TGI [7] was 55.3 µM. For the same compound, the TGI [8] was 74 µM, the TGI [9] was 59 µM and the TGI [10] was over 79.5 µM. It also gave a TGI [11] of 46.7 µM, a TGI [12] of over 100 µM and a TGI [13] of over 100 µM. For the same compound, the TGI [14] was over 100 µM, the TGI [15] was over 100 µM and the TGI [16] was over 100 µM. It also gave a TGI [50] of over 100 µM, a TGI [17] of 60.2 µM and a TGI [18] of 37.5 µM. For the same compound, the TGI [19] was over 100 µM, the TGI [63] was 83.6 µM and the TGI [20] was over 100 µM. It also gave a TGI [64] of 33.2 µM, a TGI [21] of 42.8 µM and a TGI [22] of 59.1 µM. It also gave a TGI [23] of 35.8 µM, a TGI [53] of 66.3 µM and a TGI [54] of 59.1 µM. For the same compound, the TGI [67] was over 72.2 µM, the TGI [24] was over 100 µM and the TGI [25] was 60 µM. It also gave a TGI [26] of 37.9 µM, a TGI [55] of over 56.2 µM and a TGI [27] of over 100 µM. It also gave a TGI [65] of 34.5 µM, a TGI [68] of over 100 µM and a TGI [28] of over 73.5 µM. For the same compound, the TGI [29] was over 88.7 µM, the TGI [30] was 62.9 µM and the TGI [31] was 39.3 µM. The TGI [32] was 47.8 µM, the TGI [33] was over 100 µM and the TGI [34] was 59.4 µM. For the same compound, the TGI [35] was over 100 µM, the TGI [36] was 45.6 µM and the TGI [37] was over 100 µM. It also gave a TGI [38] of over 100 µM, a TGI [60] of over 100 µM and a TGI [61] of over 100 µM. The TGI [39] was 49 µM, the TGI [66] was over 86 µM and the TGI [40] was over 100 µM. The TGI [41] was over 100 µM, the TGI [62] was 33.6 µM and the TGI [42] was 52.9 µM. For the same compound, the TGI [43] was over 86.7 µM.
